# Results taken from patent US20150218212A1, “FLUORINATED EPOXYKETONE-BASED TETRAPEPTIDE COMPOUNDS AND USES THEREOF AS PROTEASOME INHIBITORS” (FLUORINOV PHARMA INC., priority 2012, published 2015).
# What was measured:
# Assay type in all cases: cell-based, human
# [1] = system: OVCAR-5; assay: NCI screening panel, OVCAR-5 (Ovarian Cancer)
# Description: (§1) Representative compounds of Formula I were screened using the National Cancer Institute (NCI) screening panel, which consists of a panel of human tumor cell lines, representing leukemia, melanoma, and cancers of the lung, colon, ovary, breast, prostate and renal system.
# (§2) After 24 h, two plates of each cell line are fixed in situ with TCA, to represent a measurement of the cell population for each cell line at the time of drug addition (Tz). Experimental drugs are solubilised in dimethyl sulfoxide at 400-fold the desired final maximum test concentration and stored frozen prior to use. At the time of drug addition, an aliquot of frozen concentrate is thawed and diluted to twice the desired final maximum test concentration with complete medium containing 50 μg/mL gentamicin. Additional four, 10-fold or ½ log serial dilutions are made to provide a total of five drug concentrations plus control. Aliquots of 100 μl of these different drug dilutions are added to the appropriate microtiter wells already containing 100 μl of medium, resulting in the required final drug concentrations.
# (§3) Following drug addition, the plates are incubated for an additional 48 h at 37° C., 5% CO2, 95% air, and 100% relative humidity. For adherent cells, the assay is terminated by the addition of cold TCA (trichloroacetic acid). Cells are fixed in situ by the gentle addition of 50 μl of cold 50% (w/v) TCA (final concentration, 10% TCA) and incubated for 60 minutes at 4° C. The supernatant is discarded, and the plates are washed five times with tap water and air dried. Sulforhodamine B (SRB) solution (100 μl) at 0.4% (w/v) in 1% acetic acid is added to each well, and plates are incubated for 10 minutes at room temperature. After staining, unbound dye is removed by washing five times with 1% acetic acid and the plates are air dried. Bound stain is subsequently solubilised with 10 mM trizma base, and the absorbance is read on an automated plate reader at a wavelength of 515 nm. For suspension cells, the methodology is the same except that the assay is terminated by fixing settled cells at the bottom of the wells by gently adding 50 μl of 80% TCA (final concentration, 16% TCA). Using the seven absorbance measurements [time zero, (Tz), control growth, (C), and test growth in the presence of drug at the five concentration levels (Ti)], the percentage growth is calculated at each of the drug concentrations levels. Percentage growth inhibition is calculated as: [(Ti−Tz)/(C−Tz)]×100 for concentrations for which Ti>/=Tz and [(Ti−Tz)/Tz]×100 for concentrations for which Ti<Tz.
# (§4) Three dose response parameters are calculated for each experimental agent. Growth inhibition of 50% (GI50) is calculated from [(Ti−Tz)/(C−Tz)]×100=50, which is the drug concentration resulting in a 50% reduction in the net protein increase (as measured by SRB staining) in control cells during the drug incubation. The drug concentration resulting in total growth inhibition (TGI) is calculated from Ti=Tz. The LC50 (concentration of drug resulting in a 50% reduction in the measured protein at the end of the drug treatment as compared to that at the beginning) indicating a net loss of cells following treatment is calculated from [(Ti−Tz)/Tz]×100=−50. Values are calculated for each of these three parameters if the level of activity is reached. However, if the effect is not reached or is exceeded, the value for that parameter is expressed as greater or less than the maximum or minimum concentration tested.
# [2] = system: BT-549; assay: NCI screening panel, BT-549 (Breast Cancer)
# Description: as §1, §2, §3, §4
# [3] = system: SK-MEL-5; assay: NCI screening panel, SK-MEL-5 (Melanoma)
# Description: as §1, §2, §3, §4
# [4] = system: RXF 393; assay: NCI screening panel, RXF 393 (Renal Cancer)
# Description: as §1, §2, §3, §4
# [5] = system: SN12C; assay: NCI screening panel, SN12C (Renal Cancer)
# Description: as §1, §2, §3, §4
# [6] = system: DU-145; assay: NCI screening panel, DU-145 (Prostate Cancer)
# Description: as §1, §2, §3, §4
# [7] = system: MCF7; assay: NCI screening panel, MCF7 (Breast Cancer)
# Description: as §1, §2, §3, §4
# [8] = system: SF-539; assay: NCI screening panel, SF-539 (CNS Cancer)
# Description: as §1, §2, §3, §4
# [9] = system: HL-60(TB); assay: NCI screening panel, HL-60(TB) (Leukemia)
# Description: as §1, §2, §3, §4
# [10] = system: NCI-H322M; assay: NCI screening panel, NCI-H322M (Non-Small Cell Lung Cancer)
# Description: as §1, §2, §3, §4
# [11] = system: HT29; assay: NCI screening panel, HT29 (Colon Cancer)
# Description: as §1, §2, §3, §4
# [12] = system: OVCAR-8; assay: NCI screening panel, OVCAR-8 (Ovarian Cancer)
# Description: as §1, §2, §3, §4
# [13] = system: SNB-75; assay: NCI screening panel, SNB-75 (CNS Cancer)
# Description: as §1, §2, §3, §4
# [14] = system: CAKI-1; assay: NCI screening panel, CAKI-1 (Renal Cancer)
# Description: as §1, §2, §3, §4
# [15] = system: HOP-62; assay: NCI screening panel, HOP-62 (Non-Small Cell Lung Cancer)
# Description: as §1, §2, §3, §4
# [16] = system: MDA-MB-435; assay: NCI screening panel, MDA-MB-435 (Melanoma)
# Description: as §1, §2, §3, §4
# [17] = system: SF-295; assay: NCI screening panel, SF-295 (CNS Cancer)
# Description: as §1, §2, §3, §4
# [18] = system: UO-31; assay: NCI screening panel, UO-31 (Renal Cancer)
# Description: as §1, §2, §3, §4
# [19] = system: U251; assay: NCI screening panel, U251 (CNS Cancer)
# Description: as §1, §2, §3, §4
smiles,measurement,setting,value
"CC(C)C[C@H](NC(=O)[C@H](COC(F)F)NC(=O)CN1CCOCC1)C(=O)N[C@@H](COC(F)F)C(=O)N[C@@H](CC(C)C)C(=O)[C@@]1(C)CO1 [Example 1, (2S)—N-[(1S)-1-(difluoromethoxymethyl)-2-[[(1S)-3-methyl-1-[(2R)-2-methyloxirane-2-carbonyl]butyl]amino]-2-oxo-ethyl]-2-[[(2S)-3-(difluoromethoxy)-2-[(2-morpholinoacetyl)amino]propanoyl]amino]-4-methyl-pentanamide]",Log10GI50,[1],−7.39
same,Log10LC50,[1],>−4.00
same,Log10TGI50,[1],−6.31
same,Log10GI50,[2],−7.85
same,Log10LC50,[2],−6.61
same,Log10TGI50,[2],−7.40
same,Log10GI50,[3],−7.55
same,Log10LC50,[3],−6.30
same,Log10TGI50,[3],−6.97
same,Log10GI50,[4],−6.96
same,Log10LC50,[4],−6.21
same,Log10TGI50,[4],−6.59
same,Log10GI50,[5],−7.31
same,Log10LC50,[5],−4.88
same,Log10TGI50,[5],−6.62
same,Log10GI50,[6],−7.25
same,Log10LC50,[6],>−4.00
same,Log10TGI50,[6],−4.66
same,Log10GI50,[7],<−8.00
same,Log10LC50,[7],>−4.00
same,Log10TGI50,[7],−5.18
same,Log10GI50,[8],−7.78
same,Log10LC50,[8],−6.62
same,Log10TGI50,[8],−7.35
same,Log10GI50,[9],−7.49
same,Log10LC50,[9],>−4.00
same,Log10TGI50,[9],−6.30
same,Log10GI50,[10],−7.19
same,Log10LC50,[10],−4.86
same,Log10TGI50,[10],−6.45
same,Log10GI50,[11],−7.77
same,Log10LC50,[11],>−4.00
same,Log10TGI50,[11],−4.15
same,Log10GI50,[12],−6.85
same,Log10LC50,[12],>−4.00
same,Log10TGI50,[12],>−4.00
same,Log10GI50,[13],−7.66
same,Log10LC50,[13],−5.88
same,Log10TGI50,[13],−7.29
same,Log10GI50,[14],−6.29
same,Log10LC50,[14],>−4.00
same,Log10TGI50,[14],−5.24
same,Log10GI50,[15],−7.76
same,Log10LC50,[15],−6.57
same,Log10TGI50,[15],−7.33
same,Log10GI50,[16],−7.78
same,Log10LC50,[16],−7.07
same,Log10TGI50,[16],−7.42
same,Log10GI50,[17],−7.51
same,Log10LC50,[17],−6.09
same,Log10TGI50,[17],−6.88
same,Log10GI50,[18],−5.70
same,Log10LC50,[18],>−4.00
same,Log10TGI50,[18],−4.86
same,Log10GI50,[19],−7.58
same,Log10LC50,[19],>−4.00
same,Log10TGI50,[19],−6.75
